Measured values taken from patent US9695155B2, “Herbicidal substituted pyrimidinyloxy benzene compounds” (E. I. DU PONT DE NEMOURS AND COMPANY, priority 2013, dated 2017).

Key:
foxtail, green = assay: Test C postemergence; type: in vivo, Setaria viridis; conditions: for Plant response rating (0 to 100), Foxtail, Green: postemergence; for Plant response rating, Foxtail, Green: Postemergence, scale 0 to 100 (0 no effect, 100 complete control)
From the text: (§1) Seeds of plant species selected from blackgrass (Alopecurus myosuroides), Italian ryegrass (Lolium multiflorum), wheat, winter (winter wheat, Triticum aestivum), galium (catchweed bedstraw, Galium aparine), corn (Zea mays), large (Lg) crabgrass (Digitaria sanguinalis), giant foxtail (Setaria faberii), johnsongrass (Sorghum halepense), lambsquarters (Chenopodium album), morningglory (Ipomoea coccinea), yellow nutsedge (Cyperus esculentus), pigweed (Amaranthus retroflexus), ragweed (common ragweed, Ambrosia elatior), soybean (Glycine max), barnyardgrass (Echinochloa crus-galli), oilseed rape (Brassica napus), waterhemp (common waterhemp, Amaranthus rudis), kochia (Kochia scoparia), wild oat (Avena fatua), surinam grass (Brachiaria decumbens), foxtail, green (green foxtail, Setaria viridis), goosegrass (Eleusine indica), bromegrass, downy (downy bromegrass, Bromus tectorum), nightshade (eastern black nightshade, Solanum ptycanthum), cocklebur (common cocklebur, Xanthium strumarium), cupgrass, woolly (woolly cupgrass, Eriochloa villosa), bermudagrass (Cynodon dactylon), sunflower, (common oilseed sunflower, Helianthus annuus), Russian thistle (Salsola kali), and velvetleaf (Abutilon theophrasti) were planted into a blend of loam soil and sand and treated preemergence with test chemicals formulated in a non-phytotoxic solvent mixture which included a surfactant.
(§2) At the same time, plants selected from these crop and weed species and also barley, winter (winter barley, Hordeum vulgare), windgrass (Apera spica-venti), chickweed (common chickweed, Stellaria media), deadnettle (henbit deadnettle, Lamium amplexicaule), and canarygrass (littleseed canarygrass, Phalaris minor) were planted in pots containing Redi-Earth® planting medium (Scotts Company, 14111 Scottslawn Road, Marysville, Ohio 43041) comprising spaghnum peat moss, vermiculite, wetting agent and starter nutrients and treated with postemergence applications of test chemicals formulated in the same manner. Plants ranged in height from 2 to 18 cm (1- to 4-leaf stage) for postemergence treatments. Treated plants and controls were maintained in a greenhouse for 13 to 15 days, after which time all species were compared to controls and visually evaluated. Plant response ratings, summarized in Table C, are based on a scale of 0 to 100 where 0 is no effect and 100 is complete control. A dash (-) response means no test result.

goosegrass = assay: Test C postemergence; type: in vivo, Eleusine indica; conditions: for Plant response rating (0 to 100), Goosegrass: postemergence; for Plant response rating, Goosegrass: Postemergence, scale 0 to 100 (0 no effect, 100 complete control)
From the text: as §1, §2

bromegrass, downy [1] = assay: Test C postemergence; type: in vivo, Bromus tectorum; conditions: for Plant response rating (0 to 100), Bromegrass, Downy: postemergence; for Plant response rating, Bromegrass, Downy: Postemergence, scale 0 to 100 (0 no effect, 100 complete control)
From the text: as §1, §2

cocklebur = assay: Test C postemergence; type: in vivo, Xanthium strumarium; conditions: for Plant response rating (0 to 100), Cocklebur: postemergence; for Plant response rating, Cocklebur: Postemergence, scale 0 to 100 (0 no effect, 100 complete control)
From the text: as §1, §2

barley, winter = assay: Test C postemergence; type: in vivo, Hordeum vulgare; conditions: for Plant response rating (0 to 100), Barley: postemergence; for Plant response rating, Barley: Postemergence, scale 0 to 100 (0 no effect, 100 complete control)
From the text: as §1, §2

windgrass = assay: Test C postemergence; type: in vivo, Apera spica-venti; conditions: for Plant response rating (0 to 100), Windgrass: postemergence; for Plant response rating, Windgrass: Postemergence, scale 0 to 100 (0 no effect, 100 complete control)
From the text: as §1, §2

canarygrass = assay: Test C postemergence; type: in vivo, Phalaris minor; conditions: for Plant response rating (0 to 100), Canarygrass: postemergence; for Plant response rating, Canarygrass: Postemergence, scale 0 to 100 (0 no effect, 100 complete control)
From the text: as §1, §2

palmer pigweed = assay: Test E postemergence; type: in vivo, Amaranthus palmeri; conditions: for pest or weed control at 31 g/ha / pest or weed control at 62 g/ha / pest or weed control at 125 g/ha / pest or weed control at 250 g/ha / pest or weed control at 16 g/ha: post-emergence, read-out: Plant response rating, Pigweed, Palmer; for pest or weed control at 250 g/ha: 250 g ai/ha
From the text: (§3) Seeds of plant species selected from corn (Zea mays), soybean (Glycine max), velvetleaf (Abutilon theophrasti), lambsquarters (Chenopodium album), wild poinsettia (Euphorbia heterophylla), palmer pigweed (Amaranthus palmeri), waterhemp (common waterhemp, Amaranthus rudis), surinam grass (Brachiaria decumbens), large (Lg) crabgrass (Digitaria sanguinalis), Brazilian crabgrass (Digitaria horizontalis), fall panicum (Panicum dichotomiflorum), giant foxtail (Setaria faberii), green foxtail (Setaria viridis), goosegrass (Eleusine indica), johnsongrass (Sorghum halepense), ragweed (common ragweed, Ambrosia elatior), barnyardgrass (Echinochloa crus-galli), sandbur (southern sandbur, Cenchrus echinatus), arrowleaf sida (Sida rhombifolia), Italian ryegrass (Lolium multiflorum), dayflower (Virginia (VA) dayflower, Commelina virginica), field bindweed (Convolvulus arvensis), morningglory (Ipomoea coccinea), nightshade (eastern black nightshade, Solanum ptycanthum), kochia (Kochia scoparia), yellow nutsedge (Cyperus esculentus), cocklebur (common cocklebur, Xanthium strumarium), smartweed (ladysthumb smartweed, and hairy beggarticks (Bidens pilosa), were planted into a silt loam soil and treated preemergence with test chemicals formulated in a non-phytotoxic solvent mixture which included a surfactant.
(§4) At the same time, plants from these crop and weed species and also horseweed (Canada horseweed, Conyza canadensis), waterhemp_RES1, (ALS & Triazine resistant common waterhemp, Amaranthus rudis), and waterhemp_RES2, (ALS & HPPD resistant common waterhemp, Amaranthus rudis) were planted in pots containing Redi-Earth® planting medium (Scotts Company, 14111 Scottslawn Road, Marysville, Ohio 43041) comprising spaghnum peat moss, vermiculite, wetting agent and starter nutrients were treated with postemergence applications of test chemicals formulated in the same manner. Plants ranged in height from 2 to 18 cm for postemergence treatments (1- to 4-leaf stage). Treated plants and controls were maintained in a greenhouse for 14 to 21 days, after which time all species were compared to controls and visually evaluated. Plant response ratings, summarized in Table E, are based on a scale of 0 to 100 where 0 is no effect and 100 is complete control. A dash (-) response means no test result.

kochia = assay: Test C preemergence; type: in vivo, Kochia scoparia; conditions: for Kochia plant response rating: preemergence, scale 0 (no effect) to 100 (complete control)
From the text: as §1, §2

wild oat = assay: Test C preemergence; type: in vivo, Avena fatua; conditions: for Oat, Wild plant response rating: preemergence, scale 0 (no effect) to 100 (complete control)
From the text: as §1, §2

bromegrass, downy [2] = assay: Test C preemergence; type: in vivo, Bromus tectorum; conditions: for Bromegrass, Downy plant response rating: preemergence, scale 0 (no effect) to 100 (complete control)
From the text: as §1, §2

[3] = system: waterhemp_RES1 (ALS & Triazine resistant common waterhemp); assay: Test E postemergence; type: in vivo, Amaranthus rudis
Summary of the method: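 Compound in a non-phytotoxic solvent mixture with surfactant was applied preemergence to seeds in silt loam soil, or postemergence to plants 2 to 18 cm tall grown in peat-based potting medium. Plants were kept in a greenhouse for 14 to 21 days, then rated visually against untreated controls on a 0 (no effect) to 100 (complete control) scale.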

smartweed = assay: Test E postemergence; type: in vivo, ladysthumb smartweed
From the text: as §3, §4

[4] = Postemergence, 31 g ai/ha, scale 0 to 100
[5] = Postemergence, 62 g ai/ha, scale 0 to 100
[6] = Postemergence, 125 g ai/ha, scale 0 to 100
[7] = postemergence, 16 g ai/ha, scale 0 to 100, 0 no effect, 100 complete control
[8] = Preemergence, 31 g ai/ha, scale 0 to 100, 0 no effect, 100 complete control
[9] = Postemergence, 250 g ai/ha, scale 0 to 100
[10] = postemergence, 8 g ai/ha, scale 0 to 100, 0 no effect, 100 complete control

Compound: Fc1cnc(Oc2ccccc2-n2cc(Br)cn2)nc1 [Compound 10, 2-[2-(4-bromo-1H-pyrazol-1-yl)phenoxy]-5-fluoropyrimidine]
- Plant response rating (0 to 100), Foxtail, Green (foxtail, green; 125 g ai/ha): 0
- Plant response rating (0 to 100), Foxtail, Green (foxtail, green; 250 g ai/ha): 30
- Plant response rating, Foxtail, Green (foxtail, green; 31 g ai/ha, 13 to 15 days): 0
- Plant response rating, Foxtail, Green (foxtail, green; 62 g ai/ha): 0
- Plant response rating (0 to 100), Goosegrass (goosegrass; 125 g ai/ha): 5
- Plant response rating (0 to 100), Goosegrass (goosegrass; 250 g ai/ha): 10
- Plant response rating, Goosegrass (goosegrass; 31 g ai/ha, 13 to 15 days): 0
- Plant response rating, Goosegrass (goosegrass; 62 g ai/ha): 5
- Plant response rating (0 to 100), Bromegrass, Downy (bromegrass, downy [1]; 125 g ai/ha): 10
- Plant response rating (0 to 100), Bromegrass, Downy (bromegrass, downy [1]; 250 g ai/ha): 15
- Plant response rating, Bromegrass, Downy (bromegrass, downy [1]; 31 g ai/ha, 13 to 15 days): 5
- Plant response rating, Bromegrass, Downy (bromegrass, downy [1]; 62 g ai/ha): 5
- Plant response rating (0 to 100), Cocklebur (cocklebur; 125 g ai/ha): 55
- Plant response rating (0 to 100), Cocklebur (cocklebur; 250 g ai/ha): 100
- Plant response rating, Cocklebur (cocklebur; 31 g ai/ha, 13 to 15 days): 45
- Plant response rating, Cocklebur (cocklebur; 62 g ai/ha): 55
- Plant response rating (0 to 100), Barley (barley, winter; 125 g ai/ha): 5
- Plant response rating (0 to 100), Barley (barley, winter; 250 g ai/ha): 10
- Plant response rating, Barley (barley, winter; 31 g ai/ha, 13 to 15 days): 0
- Plant response rating, Barley (barley, winter; 62 g ai/ha): 5
- Plant response rating (0 to 100), Windgrass (windgrass; 125 g ai/ha): 50
- Plant response rating (0 to 100), Windgrass (windgrass; 250 g ai/ha): 65
- Plant response rating, Windgrass (windgrass; 31 g ai/ha, 13 to 15 days): 10
- Plant response rating, Windgrass (windgrass; 62 g ai/ha): 10
- Plant response rating (0 to 100), Canarygrass (canarygrass; 125 g ai/ha): 25
- Plant response rating (0 to 100), Canarygrass (canarygrass; 250 g ai/ha): 40
- Plant response rating, Canarygrass (canarygrass; 31 g ai/ha, 13 to 15 days): 0
- Plant response rating, Canarygrass (canarygrass; 62 g ai/ha): 0
- pest or weed control at 31 g/ha (palmer pigweed; [4]): 70%
- pest or weed control at 62 g/ha (palmer pigweed; [5]): 75%
- pest or weed control at 125 g/ha (palmer pigweed; [6]): 85%
- pest or weed control at 250 g/ha (palmer pigweed; Postemergence, scale 0 to 100): 95%
- pest or weed control at 16 g/ha (palmer pigweed; [7]): 60%

Compound: FC(F)(F)c1cnn(-c2ccccc2Oc2ncc(Br)cn2)c1 [Compound 18, 5-bromo-2-[2-[4-(trifluoromethyl)-1H-pyrazol-1-yl]phenoxy]pyrimidine]
- Kochia plant response rating (kochia; 62 g ai/ha): 60
- Kochia plant response rating (kochia; 125 g ai/ha): 80
- Kochia plant response rating (kochia; 250 g ai/ha): 98
- Plant response rating, Kochia (kochia; [8]): 15
- Oat, Wild plant response rating (wild oat; 62 g ai/ha): 50
- Oat, Wild plant response rating (wild oat; 125 g ai/ha): 80
- Oat, Wild plant response rating (wild oat; 250 g ai/ha): 85
- Plant response rating, Oat, Wild (wild oat; [8]): 0
- Bromegrass, Downy plant response rating (bromegrass, downy [2]; 62 g ai/ha): 10
- Bromegrass, Downy plant response rating (bromegrass, downy [2]; 125 g ai/ha): 50
- Bromegrass, Downy plant response rating (bromegrass, downy [2]; 250 g ai/ha): 95
- Plant response rating, Bromegrass, Downy (bromegrass, downy [2]; [8]): 0

Compound: N#Cc1cccc(Oc2ncc(Cl)cn2)c1-n1cc(C(F)(F)F)cn1 [Compound 58, 3-[(5-chloro-2-pyrimidinyl)oxy]-2-[4-(trifluoromethyl)-1H-pyrazol-1-yl]benzonitrile]
- pest or weed control at 31 g/ha (palmer pigweed; [4]): 95%
- pest or weed control at 62 g/ha (palmer pigweed; [5]): 100%
- pest or weed control at 125 g/ha (palmer pigweed; [6]): 100%
- pest or weed control at 250 g/ha (palmer pigweed; Postemergence, scale 0 to 100): 100%
- pest or weed control at 16 g/ha (palmer pigweed; [7]): 90%
- Plant response rating, Waterhemp_RES1 [3, 4]: 80
- Plant response rating, Waterhemp_RES1 [3, 5]: 95
- Plant response rating, Waterhemp_RES1 [3, 6]: 95
- Plant response rating, Waterhemp_RES1 [3, 9]: 100
- Plant response rating, Waterhemp_RES1 [3, 7]: 80
- Plant response rating, Smartweed (smartweed; [4]): 65
- Plant response rating, Smartweed (smartweed; [5]): 85
- Plant response rating, Smartweed (smartweed; [6]): 100
- Plant response rating, Smartweed (smartweed; [9]): 100
- Plant response rating, Smartweed (smartweed; [7]): 50

Compound: N#Cc1cccc(Oc2ncc(Br)cn2)c1-n1cc(C(F)(F)F)cn1 [Compound 59, 3-[(5-bromo-2-pyrimidinyl)oxy]-2-[4-(trifluoromethyl)-1H-pyrazol-1-yl]benzonitrile]
- pest or weed control at 31 g/ha (palmer pigweed; [4]): 80%
- pest or weed control at 62 g/ha (palmer pigweed; [5]): 85%
- pest or weed control at 125 g/ha (palmer pigweed; [6]): 100%
- pest or weed control at 250 g/ha (palmer pigweed; Postemergence, scale 0 to 100): 100%
- pest or weed control at 16 g/ha (palmer pigweed; [7]): 75%
- Plant response rating, Waterhemp_RES1 [3, 4]: 80
- Plant response rating, Waterhemp_RES1 [3, 5]: 90
- Plant response rating, Waterhemp_RES1 [3, 6]: 95
- Plant response rating, Waterhemp_RES1 [3, 9]: 100
- Plant response rating, Waterhemp_RES1 [3, 7]: 70
- Plant response rating, Smartweed (smartweed; [5]): 80
- Plant response rating, Smartweed (smartweed; [6]): 100
- Plant response rating, Smartweed (smartweed; [9]): 100
- Plant response rating, Smartweed (smartweed; [7]): 55

Compound: Clc1cnc(Oc2cccc(Br)c2-n2cc(Br)cn2)nc1 [Compound 65]
- Plant response rating, Pigweed, Palmer (palmer pigweed; [4]): 50
- Plant response rating, Pigweed, Palmer (palmer pigweed; [5]): 50
- Plant response rating, Pigweed, Palmer (palmer pigweed; [6]): 60
- Plant response rating, Pigweed, Palmer (palmer pigweed; [10]): 10
- Plant response rating, Pigweed, Palmer (palmer pigweed; [7]): 20
- Plant response rating, Waterhemp_RES1 [3, 4]: 85
- Plant response rating, Waterhemp_RES1 [3, 5]: 90
- Plant response rating, Waterhemp_RES1 [3, 6]: 98
- Plant response rating, Waterhemp_RES1 [3, 10]: 65
- Plant response rating, Waterhemp_RES1 [3, 7]: 70
